# Where a SMILES comes first, the peptide text is derived from it.
# Assay: physchem
# Format: physicochemical
# Experimental: Peptide used as a model: H-Phe-Leu-NH2
# H-Phe-Leu-NH2 and H-Phe-Leu-NH-(TIPS2-Xtn) were synthesized, and each compound was saturated in cyclopentyl methyl ether (CPME) at 25° C. to measure the solubility of each compound.
# In regard to H-Phe-Leu-NH2 not bound to a TIPS type protective agent, 0.5 mM of the peptide dissolved in CPME. […] Herein, H-Phe-Leu-NH2 and H-Phe-Leu-NH-(TIPS2-Xtn) have the following structures.
Structure (SMILES),solubility,solubility in CPME relative to unprotected H-Phe-Leu-NH2
"CC(C)C[C@H](NC(=O)[C@@H](N)Cc1ccccc1)C(N)=O [H-Phe-Leu-NH2, reference compound] (H-Phe-Leu-NH2)",0.5 mM,–
CC(C)C[C@H](NC(=O)[C@@H](N)Cc1ccccc1)C(=O)NC1c2ccc(OCCCCCCCCCCCO[Si](C(C)C)(C(C)C)C(C)C)cc2Oc2cc(OCCCCCCCCCCCO[Si](C(C)C)(C(C)C)C(C)C)ccc21 [H-Phe-Leu-NH-(TIPS2-Xtn)],586 mM,≥ 1100 times

# — patent publication US10508124B2, “Xanthene protective agent” (priority 2016, dated 2019)
